Results published in BindingDB's records for doi:10.1074/jbc.M111.266981 (AstraZeneca, 2011).

Molecular target: T1, Myeloperoxidase (Homo sapiens, UniProt P05164)
T1 sequence (P05164 whole entry): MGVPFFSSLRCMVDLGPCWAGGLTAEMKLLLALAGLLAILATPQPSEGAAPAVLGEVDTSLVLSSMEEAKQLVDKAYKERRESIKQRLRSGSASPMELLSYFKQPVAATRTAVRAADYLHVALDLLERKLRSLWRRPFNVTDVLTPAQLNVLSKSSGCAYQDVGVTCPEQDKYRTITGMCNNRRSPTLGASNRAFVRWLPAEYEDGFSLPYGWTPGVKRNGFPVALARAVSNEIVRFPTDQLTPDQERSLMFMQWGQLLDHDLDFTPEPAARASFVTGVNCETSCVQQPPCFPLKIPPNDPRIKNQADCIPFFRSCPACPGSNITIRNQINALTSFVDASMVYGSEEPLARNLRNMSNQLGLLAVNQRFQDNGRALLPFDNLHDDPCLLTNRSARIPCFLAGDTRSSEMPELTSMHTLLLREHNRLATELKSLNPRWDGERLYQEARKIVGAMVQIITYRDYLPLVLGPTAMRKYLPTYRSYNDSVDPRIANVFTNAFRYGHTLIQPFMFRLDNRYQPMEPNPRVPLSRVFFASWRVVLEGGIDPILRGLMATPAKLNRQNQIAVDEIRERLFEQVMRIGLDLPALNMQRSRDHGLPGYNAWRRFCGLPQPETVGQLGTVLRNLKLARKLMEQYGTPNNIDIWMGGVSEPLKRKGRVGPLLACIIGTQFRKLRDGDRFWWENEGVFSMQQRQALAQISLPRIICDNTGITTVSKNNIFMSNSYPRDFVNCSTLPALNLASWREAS
Experiment: Activity Assay
Conditions: pH 7.4; 21 °C
Procedure: The chlorination activity of MPO was determined by measuring the production of hypocholorous acid.

IC50 [nM] | SMILES
1000 | CC(C)Cn1c(=S)[nH]c(=O)c2[nH]cnc21 [2-Thioxanthine, TX1]
200 | O=c1[nH]c(=S)n(C[C@H]2CCCO2)c2nc[nH]c12 [2-Thioxanthine, TX4]
400 | O=c1[nH]c(=S)n(CC2CCCO2)c2nc[nH]c12 (centres undefined) [2-Thioxanthine, TX3]
400 | COCCn1c(=S)[nH]c(=O)c2[nH]cnc21 [2-Thioxanthine, TX5]
